In patent US10533010B2, “Substituted indole Mcl-1 inhibitors” (Vanderbilt University, priority 2014, dated 2020) one finds Ki data, which are given here for 17 molecules.

The test deals with recombinant Mcl-1 (residues 172-327) (Homo sapiens (Human), UniProt Q07820). Description: Fluorescence polarization anisotropy competition assay (FITC-Bak or FITC-Bim BH3 peptide) with Mcl-1. Format: binding. The conditions noted are these: Table 2, FITC-Bak or FITC-Bim peptide competition, Ki converted from IC50, read-out: Ki for Inhibition of Mcl-1. In general terms: In fluorescence polarisation assays a small probe gives low polarisation when free and higher when bound to something large.
Sequence of recombinant Mcl-1 (residues 172-327) (Q07820 172-327): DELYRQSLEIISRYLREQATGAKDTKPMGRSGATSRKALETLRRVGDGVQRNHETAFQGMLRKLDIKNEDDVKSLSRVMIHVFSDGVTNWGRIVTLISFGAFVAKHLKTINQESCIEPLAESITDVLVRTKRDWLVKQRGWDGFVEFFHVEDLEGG

Read-outs that look alike come from different tables or passages of the source.

Usually Ki stands for the equilibrium dissociation constant of an inhibitor or competing ligand from its target. With `Cc1cc(OCCCc2c3n(c4c(-c5c(C)nn(C)c5C)c(Cl)ccc24)CCCN(c2cccc(-c4nn[nH]n4)c2)C3=O)cc(C)c1Cl` [I-354, 2-(3-(2H-tetrazol-5-yl)phenyl)-8-chloro-1-(3-(4-chloro-3,5-dimethylphenoxy)propyl)-7-(1,3,5-trimethyl-1H-pyrazol-4-yl)-2,3,4,5-tetrahydro-1H-[1,4]diazepino[1,2-a]indol-1-one], the Ki (Ki bins given in nM) was less than 50 nM.
`Cc1cc(OCCCc2c(C(=O)NCc3ccc(N4CCc5ccccc5C4)nc3)[nH]c3c(-c4c(C)nn(C)c4C)cccc23)cc(C)c1Cl` [I-261, 3-(3-(4-chloro-3,5-dimethylphenoxy)propyl)-N-((6-(3,4-dihydroisoquinolin-2 (1H)-yl)pyridin-3-yl)methyl)-7-(1,3,5-trimethyl-1H-pyrazol-4-yl)-1H-indole-2-carboxamide]: for the setting “Ki bins given in μM”, the Ki was 1000 to 9990 nM.
Turning to `Cc1cc(OCCCc2c(C(=O)NCc3cc(C(=O)O)c(CN4CCc5ccccc5C4)o3)[nH]c3c(-c4c(C)nn(C)c4C)cccc23)cc(C)c1Cl` [I-293, 5-((3-(3-(4-chloro-3,5-dimethylphenoxy)propyl)-7-(1,3,5-trimethyl-1H-pyrazol-4-yl)-1H-indole-2-carboxamido)methyl)-2-((3,4-dihydroisoquinolin-2(1H)-yl)methyl)furan-3-carboxylic acid], the Ki (Ki bins given in nM) was less than 50 nM.
On the same count and under the same terms, under `Cc1cc(OCCCc2c(C(=O)NCc3cc(C(=O)O)n(Cc4ccccc4)c3)[nH]c3c(-c4c(C)nn(C)c4C)cccc23)cc(C)c1Cl` [I-75, 1-benzyl-4-((3-(3-(4-chloro-3,5-dimethylphenoxy)propyl)-7-(1,3,5-trimethyl-1H-pyrazol-4-yl)-1H-indole-2-carboxamido)methyl)-1H-pyrrole-2-carboxylic acid] stands 51 to 100 nM.
Regarding `CCOC(=O)c1ccc(CNC(=O)c2[nH]c3ccccc3c2CCCOc2cc(C)c(Cl)c(C)c2)o1` [I-56, ethyl 5-((3-(3-(4-chloro-3,5-dimethylphenoxy)propyl)-1H-indole-2-carboxamido)methyl)furan-2-carboxylate], the Ki (Ki bins given in μM) was in the range of 1000 to 9990 nM.
`Cc1cc(OCCCc2c(C(=O)N(Cc3ccc(C(F)(F)F)cc3)c3ccc(S(N)(=O)=O)cn3)[nH]c3ccccc23)cc(C)c1Cl` [I-49, 3-(3-(4-chloro-3,5-dimethylphenoxy)propyl)-N-(5-sulfamoylpyridin-2-yl)-N-(4-(trifluoromethyl)benzyl)-1H-indole-2-carboxamide]: the Ki (Ki bins given in nM) is 101 to 299 nM.
As for `Cc1cnccc1-c1cc(C(=O)O)cc(N2CCCn3c(c(CCCOc4cc(C)c(Cl)c(C)c4)c4ccc(Cl)c(-c5c(C)nn(C)c5C)c43)C2=O)c1` [I-233, 3-(8-chloro-11-(3-(4-chloro-3,5-dimethylphenoxy)propyl)-1-oxo-7-(1,3,5-trimethyl-1H-pyrazol-4-yl)-4,5-dihydro-1H-[1,4]diazepino[1,2-a]indol-2(3H)-yl)-5-(3-methylpyridin-4-yl)benzoic acid], under “Ki bins given in nM”, the Ki is less than 50 nM.
As for `Cc1cc(OCCCc2c3n(c4c(-c5c(C)nn(C)c5C)c(Cl)ccc24)CCCN(c2cc(C(=O)O)cc4nnn(C)c24)C3=O)cc(C)c1Cl` [I-362, 7-(8-chloro-11-(3-(4-chloro-3,5-dimethylphenoxy)propyl)-1-oxo-7-(1,3,5-trimethyl-1H-pyrazol-4-yl)-4,5-dihydro-1H-[1,4]diazepino[1,2-a]indol-2(3H)-yl)-1-methyl-1H-benzo[d][1,2,3]triazole-5-carboxylic acid], for the setting “Ki bins given in nM”, the Ki was less than 50 nM.
The same measure, in the same setting: under `Cc1cc(OCCCc2c3n(c4c(-c5c(C)nn(C)c5C)c(Cl)ccc24)CC(C)CNC3=O)cc(C)c1Cl` (centres unmarked) [I-115, 8-chloro-1-(3-(4-chloro-3,5-dimethylphenoxy)propyl)-4-methyl-7-(1,3,5-trimethyl-1H-pyrazol-4-yl)-2,3,4,5-tetrahydro-1H-[1,4]diazepino[1,2-a]indol-1-one] stands less than 50 nM; under `Cc1cc(OCCCc2c3n(c4c(-c5c(C)nn(C)c5C)c(Cl)ccc24)CCCN(c2cc(C(=O)O)cc(C(F)(F)F)c2)C3=O)cc(C)c1Cl` [I-222, 3-(8-chloro-11-(3-(4-chloro-3,5-dimethylphenoxy)propyl)-1-oxo-7-(1,3,5-trimethyl-1H-pyrazol-4-yl)-4,5-dihydro-1H-[1,4]diazepino[1,2-a]indol-2(3H)-yl)-5-(trifluoromethyl)benzoic acid], less than 50 nM; under `CCn1ccc2c(N3CCCn4c(c(CCCOc5cc(C)c(Cl)c(C)c5)c5ccc(Cl)c(-c6c(C)nn(C)c6C)c54)C3=O)cc(C(=O)O)cc21` [I-249, 4-(8-chloro-11-(3-(4-chloro-3,5-dimethylphenoxy)propyl)-1-oxo-7-(1,3,5-trimethyl-1H-pyrazol-4-yl)-4,5-dihydro-1H-[1,4]diazepino[1,2-a]indol-2(3H)-yl)-1-ethyl-1H-indole-6-carboxylic acid], less than 50 nM.
Take `Cc1nn(C)c(C)c1-c1cccc2c(CCCOc3cccc4ccccc34)c(C(=O)N(C)c3cccc(C(=O)O)c3)[nH]c12` [I-195, 3-(N-methyl-3-(3-(naphthalen-1-yloxy)propyl)-7-(1,3,5-trimethyl-1H-pyrazol-4-yl)-1H-indole-2-carboxamido)benzoic acid]: the Ki (Ki bins given in nM) is less than 50 nM.
Same read-out and setting: under `Cc1cc(OCCCc2c(C(=O)NCc3ccc(C(=O)NS(=O)(=O)c4ccccc4)o3)[nH]c3ccccc23)cc(C)c1Cl` [I-60, 3-(3-(4-chloro-3,5-dimethylphenoxy)propyl)-N-((5-((phenylsulfonyl)carbamoyl)furan-2-yl)methyl)-1H-indole-2-carboxamide] stands 101 to 299 nM; under `Cc1cc(OCCCc2c3n(c4c(-c5c(C)nn(C)c5C)c(Cl)ccc24)CCCN(c2cc(C(=O)O)cc(N(C)C)c2)C3=O)cc(C)c1Cl` [I-216, 3-(8-chloro-11-(3-(4-chloro-3,5-dimethylphenoxy)propyl)-1-oxo-7-(1,3,5-trimethyl-1H-pyrazol-4-yl)-4,5-dihydro-1H-[1,4]diazepino[1,2-a]indol-2(3H)-yl)-5-(dimethylamino)benzoic acid], less than 50 nM.
Turning to `Cc1cc(OCCCc2c3n(c4c(-c5c(C)nn(C)c5C)c(Cl)ccc24)CCCN(c2ccc(C(=O)O)cc2F)C3=O)cc(C)c1Cl` [I-95, 4-(8-chloro-11-(3-(4-chloro-3,5-dimethylphenoxy)propyl)-1-oxo-7-(1,3,5-trimethyl-1H-pyrazol-4-yl)-4,5-dihydro-1H-[1,4]diazepino[1,2-a]indol-2(3H)-yl)-3-fluorobenzoic acid], the Ki (Ki bins given in nM) was less than 50 nM.
With `Cc1cc(OCCCc2c3n(c4c(-c5c(C)nn(C)c5C)c(Cl)ccc24)[C@@H](C)CN(Cc2ccc(C(=O)O)cn2)C3=O)cc(C)c1Cl` [I-149, (S)-6-((7-chloro-10-(3-(4-chloro-3,5-dimethylphenoxy)propyl)-4-methyl-1-oxo-6-(1,3,5-trimethyl-1H-pyrazol-4-yl)-3,4-dihydropyrazino[1,2-a]indol-2(1H)-yl)methyl)nicotinic acid], the Ki (Ki bins given in nM) is less than 50 nM.
Take `Cc1cc(OCCCc2c(C(=O)N3CCc4ccc(C(=O)O)cc43)[nH]c3c(-c4c(C)nn(C)c4C)c(Cl)ccc23)cc(C)c1Cl` [I-192, 1-(6-chloro-3-(3-(4-chloro-3,5-dimethylphenoxy)propyl)-7-(1,3,5-trimethyl-1H-pyrazol-4-yl)-1H-indole-2-carbonyl)indoline-6-carboxylic acid]: the Ki (Ki bins given in nM) is less than 50 nM.
